Results taken from patent US11185616B2, “Implantable medical products, a process for the preparation thereof, and use thereof” (priority 2016, dated 2021).

What was measured:
[1] = test system: thromboxane A2 in platelets; details: Köfeler et al. 2000; cited from earlier work
S. aureus ATCC = assay: rifampicin resistance development, passaging experiment; type: cell-based; details: parallel culture with rifampicin-MHC doping
Description: (§1) 10 ml tubes with Müller-Hinton broth (MHB) was brought to a concentration of about 10^6 CPU with 0.01 ml of an overnight culture with S. epidermidis RP62A and S. aureus ATCC, and provided with the respective MHC of rifampicin and miconazole. An aliquot was taken from the overnight cultures, brought into new MHB tubes (about 10^6 CPU), and again incubated over night. This was repeated up to 50 times, and the resistant isolates were frozen.

S. epidermidis RP62A = assay: as above; type: cell-based; details: parallel culture with rifampicin-MHC doping
Description: as §1

Row | Compound | inhibition of synthesis of thromboxane A2 in platelets [1] | resistance frequencies (S. aureus ATCC) | resistance frequencies (S. epidermidis RP62A)
1 | Clc1ccccc1C(c1ccccc1)(c1ccccc1)n1ccnc1 [clotrimazole] | selectively inhibit |  | 
2 | Clc1ccc(COC(Cn2ccnc2)c2ccc(Cl)cc2Cl)c(Cl)c1 (stereo not shown) [Miconazole, miconazole] | selectively inhibit |  | 
3 | CO[C@H]1/C=C/O[C@@]2(C)Oc3c(C)c(O)c4c(O)c(c(/C=N/N5CCN(C)CC5)c(O)c4c3C2=O)NC(=O)/C(C)=C\C=C\[C@H](C)[C@H](O)[C@@H](C)[C@@H](O)[C@@H](C)[C@H](OC(C)=O)[C@@H]1C [rifampicin] |  | 10^−6 | 10^−6
